# Data as given in article PMC8952293, “A Histone Deacetylase (HDAC) Inhibitor with Pleiotropic In Vitro Anti-Toxoplasma and Anti-Plasmodium Activities Controls Acute and Chronic Toxoplasma Infection in Mice” (International Journal of Molecular Sciences, 2022).
# What was measured:
# [1] = SPECT/CT imaging of the iodine-125 radiotracer in infected mice; assay type: in vivo, mouse
# Experimental: (§1) An isotopic exchange was performed to obtain the radiolabeled iodinated JF363. Briefly, 2 mg of the iodinated molecule was incubated in acetone with 3 mg of cold Na127I and 55.5 MBq of radioactive Na125I (PerkinElmer) for 1 h at 95 °C in a heat block. After evaporation of acetone, the radiotracer was solubilized in corn oil; 5% DMSO was also added to mimic the previous conditions. Quality controls were performed by TLC.
# Three female CD1 mice (31.7 ± 1.3 g; Janvier Labs, Le Genest-Saint-Isle, France) and two female mice infected with T. gondii obtained as previously described (19.5 ± 2.1 g) were studied. The previous study gave the radiotracer by oral gavage (administered dose: 0.73 ± 0.25 MBq/g). Before imaging, mice were anesthetized using isoflurane (2% in a mixture of air: O2) and positioned in a thermostatic bed. Whole-body single-photon emission computerized tomography/computed tomography (SPECT/CT) acquisitions were performed 0.5, 3.5, and 24 h after injection using a dedicated system (nanoSPECT-CT; Mediso, Budapest, Hungary). First, CT and SPECT acquisitions were reconstructed and fused using Nucline software (Mediso, Budapest, Hungary). This fusion allowed drawing a volume of interest (VOI in cm^3) on selected/visible organs, and SPECT quantification based on CT was then performed using VivoQuant (InviCRO, Boston, MA, USA). Results were expressed in %ID/cm^3 or %ID/g (percentage of injected dose per cubic centimeter or gram of tissue).
# [2] = Stability of the radiolabeled compound in the medium; assay type: physicochemical; conditions: corn oil with 5% DMSO
# Experimental: as §1
# Toxoplasma = test system: Toxoplasma; set-up: method as in PMID 22712598; conditions: primary drug used to treat toxoplasmosis; cited from earlier work
# Toxoplasma gondii = test system: Toxoplasma gondii; set-up: method as in PMID 20713670; conditions: cited from earlier work
compound,measurement,setting,value
COc1cc(CC(=O)Nc2ccc(C(=O)NO)cc2)ccc1I [iodo-JF363],SPECT quantification,"[1]; Bladder, infected mouse #2, 0.5 h pi",5.5 %DI/cm^3
same,SPECT quantification,"[1]; Bladder, infected mouse #2, 3.5 h pi",19.1 %DI/cm^3
same,SPECT quantification,"[1]; Bladder, infected mouse #2, 24 h pi",0.6 %DI/cm^3
same,SPECT quantification,"[1]; Bladder, infected mouse #3, 0.5 h pi",6.4 %DI/cm^3
same,SPECT quantification,"[1]; Bladder, infected mouse #3, 3.5 h pi",8.2 %DI/cm^3
same,SPECT quantification,"[1]; Bladder, infected mouse #3, 24 h pi",3.9 %DI/cm^3
same,SPECT quantification,"[1]; Heart, infected mouse #2, 0.5 h pi",3.1 %DI/cm^3
same,SPECT quantification,"[1]; Heart, infected mouse #2, 3.5 h pi",2.1 %DI/cm^3
same,SPECT quantification,"[1]; Heart, infected mouse #2, 24 h pi",0.2 %DI/cm^3
same,SPECT quantification,"[1]; Heart, infected mouse #3, 0.5 h pi",1.0 %DI/cm^3
same,SPECT quantification,"[1]; Heart, infected mouse #3, 3.5 h pi",1.0 %DI/cm^3
same,SPECT quantification,"[1]; Heart, infected mouse #3, 24 h pi",0.2 %DI/cm^3
same,SPECT quantification,"[1]; Intestine, infected mouse #2, 0.5 h pi",16.7 %DI/cm^3
same,SPECT quantification,"[1]; Intestine, infected mouse #2, 3.5 h pi",13.8 %DI/cm^3
same,SPECT quantification,"[1]; Intestine, infected mouse #2, 24 h pi",0.5 %DI/cm^3
same,SPECT quantification,"[1]; Intestine, infected mouse #3, 0.5 h pi",3.8 %DI/cm^3
same,SPECT quantification,"[1]; Intestine, infected mouse #3, 3.5 h pi",4.9 %DI/cm^3
same,SPECT quantification,"[1]; Intestine, infected mouse #3, 24 h pi",1.5 %DI/cm^3
same,SPECT quantification,"[1]; Lungs, infected mouse #2, 0.5 h pi",1.8 %DI/cm^3
same,SPECT quantification,"[1]; Lungs, infected mouse #2, 3.5 h pi",1.5 %DI/cm^3
same,SPECT quantification,"[1]; Lungs, infected mouse #2, 24 h pi",0.1 %DI/cm^3
same,SPECT quantification,"[1]; Lungs, infected mouse #3, 0.5 h pi",0.6 %DI/cm^3
same,SPECT quantification,"[1]; Lungs, infected mouse #3, 3.5 h pi",0.5 %DI/cm^3
same,SPECT quantification,"[1]; Lungs, infected mouse #3, 24 h pi",0.2 %DI/cm^3
same,SPECT quantification,"[1]; Mouth, infected mouse #2, 0.5 h pi",10.0 %DI/cm^3
same,SPECT quantification,"[1]; Mouth, infected mouse #2, 3.5 h pi",8.4 %DI/cm^3
same,SPECT quantification,"[1]; Mouth, infected mouse #2, 24 h pi",4.7 %DI/cm^3
same,SPECT quantification,"[1]; Mouth, infected mouse #3, 0.5 h pi",10.5 %DI/cm^3
same,SPECT quantification,"[1]; Mouth, infected mouse #3, 3.5 h pi",6.8 %DI/cm^3
same,SPECT quantification,"[1]; Mouth, infected mouse #3, 24 h pi",3.4 %DI/cm^3
same,SPECT quantification,"[1]; Neck ganglia, infected mouse #2, 0.5 h pi",8.5 %DI/cm^3
same,SPECT quantification,"[1]; Neck ganglia, infected mouse #2, 3.5 h pi",9.5 %DI/cm^3
same,SPECT quantification,"[1]; Neck ganglia, infected mouse #2, 24 h pi",1.3 %DI/cm^3
same,SPECT quantification,"[1]; Neck ganglia, infected mouse #3, 0.5 h pi",4.0 %DI/cm^3
same,SPECT quantification,"[1]; Neck ganglia, infected mouse #3, 3.5 h pi",5.0 %DI/cm^3
same,SPECT quantification,"[1]; Neck ganglia, infected mouse #3, 24 h pi",1.1 %DI/cm^3
same,SPECT quantification,"[1]; Salivary glands, infected mouse #2, 0.5 h pi",16.7 %DI/cm^3
same,SPECT quantification,"[1]; Salivary glands, infected mouse #2, 3.5 h pi",37.6 %DI/cm^3
same,SPECT quantification,"[1]; Salivary glands, infected mouse #2, 24 h pi",3.0 %DI/cm^3
same,SPECT quantification,"[1]; Salivary glands, infected mouse #3, 0.5 h pi",8.1 %DI/cm^3
same,SPECT quantification,"[1]; Salivary glands, infected mouse #3, 3.5 h pi",20.3 %DI/cm^3
same,SPECT quantification,"[1]; Salivary glands, infected mouse #3, 24 h pi",3.3 %DI/cm^3
same,SPECT quantification,"[1]; Stomach, infected mouse #2, 0.5 h pi",12.1 %DI/cm^3
same,SPECT quantification,"[1]; Stomach, infected mouse #2, 3.5 h pi",17.1 %DI/cm^3
same,SPECT quantification,"[1]; Stomach, infected mouse #2, 24 h pi",4.2 %DI/cm^3
same,SPECT quantification,"[1]; Stomach, infected mouse #3, 0.5 h pi",45.0 %DI/cm^3
same,SPECT quantification,"[1]; Stomach, infected mouse #3, 3.5 h pi",42.7 %DI/cm^3
same,SPECT quantification,"[1]; Stomach, infected mouse #3, 24 h pi",8.9 %DI/cm^3
same,SPECT quantification,"[1]; Thyroid, infected mouse #2, 0.5 h pi",28.9 %DI/cm^3
same,SPECT quantification,"[1]; Thyroid, infected mouse #2, 3.5 h pi",18.8 %DI/cm^3
same,SPECT quantification,"[1]; Thyroid, infected mouse #2, 24 h pi",26.6 %DI/cm^3
same,SPECT quantification,"[1]; Thyroid, infected mouse #3, 0.5 h pi",4.1 %DI/cm^3
same,SPECT quantification,"[1]; Thyroid, infected mouse #3, 3.5 h pi",9.9 %DI/cm^3
same,SPECT quantification,"[1]; Thyroid, infected mouse #3, 24 h pi",29.5 %DI/cm^3
same,SPECT activity in neck ganglia,"[1]; both infected mice, 24 h pi",~ 1%
same,SPECT activity in neck ganglia,"[1]; infected mouse #2, 30 min pi",8.5 % ID/cm^3
same,SPECT activity in neck ganglia,"[1]; infected mouse #2, 3.5 h pi",9.5 % ID/cm^3
same,SPECT activity in neck ganglia,"[1]; infected mouse #3, 30 min pi",4 % ID/cm^3
same,SPECT activity in neck ganglia,"[1]; infected mouse #3, 3.5 h pi",5 % ID/cm^3
same,route of elimination,"[1]; oral gavage of the radiotracer, mice",primarily through the urinary tract
same,stability in the medium,[2],good up to 72 h
CCc1nc(N)nc(N)c1-c1ccc(Cl)cc1 [pyrimethamine],IC50,Toxoplasma,400 nM
FR235222,efficiency on parasite proliferation and ex vivo cyst formation,Toxoplasma gondii,efficient in vitro
